According to patent US12252491B2, “IL-17A inhibitors” (Eli Lilly and Company, priority 2019, dated 2025):

What was measured:
[1] = Mouse oral bioavailability; assay type: in vivo; conditions: whole blood (dried blood spot), male mice, IV bolus 1 mg/kg vs oral 3 mg/kg, 8-hour AUC, read-out: % F (mouse)
Method: Oral bioavailability (% F) for compounds of the invention may be determined in mice by determination of an 8-hour blood plasma AUC (nM*hr) following intravenous and oral administration performed essentially as follows. Male mice (n=3) are administered compound via intravenous (IV) bolus (1 mg/kg) or orally (3 mg/kg). For intravenous administration, a vehicle of 20% w/v capsitol in NaPO4 buffer (25 mM) adjusted to pH 2 in a volume of 5 mL/kg is used. For oral administration, a vehicle of HEC/P80/AF/PW (probe sonicated to afford a homogeneous suspension) in a volume of 10 mL/kg is used. Blood is sampled by saphenous bleeding using K2 EDTA as anticoagulant. Approximately 20 μL of blood (or enough for 1 spot) is collected via a capillary tube and transferred to a card as a dry blood spot. Cards are allowed to dry for at least 2 hours before shipping for analysis. Blood concentration of compounds for each mouse is measured by liquid chromatography/tandem mass spectrometry at time points of 0.08 (IV only), 0.25, 0.5, 0.75, 2, 4, and 8 hours. Oral bioavailability (% F) is determined via the following equation: [% F=(AUC/Dose)PO/(AUC/Dose)IV].

[2] = target: binding of IL-17A to IL-17RA (Homo sapiens (Human), UniProt Q16552); assay: IL-17A:IL-17RA AlphaLISA
binding of IL-17A to IL-17RA, sequence (Q16552 other isoform, or with tags, fused parts or gaps): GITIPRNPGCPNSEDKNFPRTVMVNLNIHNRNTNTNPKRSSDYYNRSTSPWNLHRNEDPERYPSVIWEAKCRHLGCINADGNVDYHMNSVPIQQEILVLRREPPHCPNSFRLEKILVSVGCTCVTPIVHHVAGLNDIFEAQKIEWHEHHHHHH
Method: The ability of compounds to inhibit the binding of IL-17A to IL-17RA may be assessed with an AlphaLISA assay.
To assay the compounds of the present invention, 0.1 μL of a test compound stock is serially diluted in 100% DMSO using an Echo Acoustic Liquid Handler (LabCyte Sunnydale, Calif.) in 384 well proxiplates (Perkin Elmer). A 5 μL addition of IL-17RA-FLAG is added to the plate, followed by the addition of 5 μL Avi-tagged IL-17A-His to provide a final concentration of 2 nM of IL-17RA and IL-17A, respectively. The assay is carried out in 20 mM HEPES, 150 mM NaCl, 0.05% Tween-20, 0.1% Human Serum Albumin, pH 7 and 1% DMSO. The assay mixture is allowed to incubate at room temperature for 2 hours. After the 2 hour incubation, 10 μL of streptavidin donor beads (20 μg/ml final) and anti-FLAG acceptor beads (20 μg/ml final) are added to the plate. The plate is allowed to incubate for one hour at room temp, then is read on the Envision (Perkin Elmer). The relative IC50 values are determined using a four parameter fit as shown in equation 1. In this equation, bottom and top are defined as the plateaus of the curve, and H is the Hill Slope.

human IL-17A = human IL-17A (Homo sapiens (Human), UniProt Q16552)
human IL-17A, sequence (Q16552 20-155): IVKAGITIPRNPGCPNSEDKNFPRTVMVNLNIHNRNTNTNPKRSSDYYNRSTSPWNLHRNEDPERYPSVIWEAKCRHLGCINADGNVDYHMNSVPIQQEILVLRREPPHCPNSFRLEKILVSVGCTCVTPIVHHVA
Method: The ability of compounds to neutralize the activity of IL-17A may be assessed with a cell-based human IL-17A neutralization assay conducted essentially as follows. […] After 48 hours, CXCL1/GROα in the culture media is measured using a commercial ELISA kit (#DY275; R&D Systems). Medium alone treatments are included in every experiment to assess the basal levels of CXCL1/GROα. Percent inhibition is calculated using the following equation:

Row | Compound | bioavailability [1] | IC50 [2] | IC50 (human IL-17A)
1 | O=C(N[C@H](c1cn2ncc(CN3C[C@@H](C(F)(F)F)NC3=O)cc2n1)C1CCC(F)(F)CC1)c1nonc1C1CC1 [Example 19, 4-Cyclopropyl-N—[(S)-(4,4-difluorocyclohexyl)-[7-[[(4S)-2-oxo-4-(trifluoromethyl)imidazolidin-1-yl]methyl]imidazo[1,2-b]pyridazin-2-yl]methyl]-1,2,5-oxadiazole-3-carboxamide] | 47% |  | 
2 | CCc1nonc1C(=O)N[C@H](c1cn2ncc(CN3C[C@@H](C(F)(F)F)NC3=O)cc2n1)C1CCC(F)(F)CC1 [Example 17, N—[(S)-(4,4-Difluorocyclohexyl)-[7-[[(4S)-2-oxo-4-(trifluoromethyl)imidazolidin-1-yl]methyl]imidazo[1,2-b]pyridazin-2-yl]methyl]-4-ethyl-1,2,5-oxadiazole-3-carboxamide] |  | < 9.45 nM | 15.9 nM
3 | O=C(N[C@H](c1cn2ncc(CN3C[C@@H](C(F)(F)F)NC3=O)cc2n1)C1CCC(F)(F)CC1)c1conc1CC(F)F [Example 8, N—[(S)-(4,4-Difluorocyclohexyl)-[7-[[(4S)-2-oxo-4-(trifluoromethyl)imidazolidin-1-yl]methyl]imidazo[1,2-b]pyridazin-2-yl]methyl]-3-(2,2-difluoroethyl)isoxazole-4-carboxamide] |  | 15.5 nM | 52.4 nM
4 | COC[C@H](c1cnn2cc([C@@H](NC(=O)c3nonc3C3CC3)C3CCC(F)(F)CC3)nc2c1)N1C[C@@H](C(F)(F)F)NC1=O [Example 25, 4-Cyclopropyl-N—[(S)-(4,4-difluorocyclohexyl)-[7-[(1S)-2-methoxy-1-[(4S)-2-oxo-4-(trifluoromethyl)imidazolidin-1-yl]ethyl]imidazo[1,2-b]pyridazin-2-yl]methyl]-1,2,5-oxadiazole-3-carboxamide] | 37% | < 9.45 nM | 2.2 ± 1.6 nM
5 | O=C(N[C@H](c1cn2ncc(CN3C[C@@H](C(F)(F)F)NC3=O)cc2n1)C1CCC(F)(F)CC1)c1conc1C(F)(F)C1CC1 [Example 13, 3-[Cyclopropyl(difluoro)methyl]-N—[(S)-(4,4-difluorocyclohexyl)-[7-[[(4S)-2-oxo-4-(trifluoromethyl)imidazolidin-1-yl]methyl]imidazo[1,2-b]pyridazin-2-yl]methyl]isoxazole-4-carboxamide] |  | 47.1 nM | 53.1 nM
6 | CC(C)c1nocc1C(=O)N[C@H](c1cn2ncc(CN3C[C@@H](C(F)(F)F)NC3=O)cc2n1)C1CCC(F)(F)CC1 [Example 16, N—[(S)-(4,4-Difluorocyclohexyl)-[7-[[(4S)-2-oxo-4-(trifluoromethyl)imidazolidin-1-yl]methyl]imidazo[1,2-b]pyridazin-2-yl]methyl]-3-isopropyl-isoxazole-4-carboxamide] |  | 19.3 nM | 10.8 nM
7 | O=C(N[C@H](c1cn2ncc(CN3C[C@@H](C(F)(F)F)NC3=O)cc2n1)C1CCC(F)(F)CC1)c1nonc1C(F)F [Example 18, N—[(S)-(4,4-Difluorocyclohexyl)-[7-[[(4S)-2-oxo-4-(trifluoromethyl)imidazolidin-1-yl]methyl]imidazo[1,2-b]pyridazin-2-yl]methyl]-4-(difluoromethyl)-1,2,5-oxadiazole-3-carboxamide] |  | < 9.45 nM | 22.7 nM
8 | COc1nonc1C(=O)N[C@H](c1cn2ncc(CN3C[C@@H](C(F)(F)F)NC3=O)cc2n1)C1CCC(F)(F)CC1 [Example 22, N—[(S)-(4,4-Difluorocyclohexyl)-[7-[[(4S)-2-oxo-4-(trifluoromethyl)imidazolidin-1-yl]methyl]imidazo[1,2-b]pyridazin-2-yl]methyl]-4-methoxy-1,2,5-oxadiazole-3-carboxamide] |  | 11.4 nM | 83.4 nM
9 | O=C(N[C@H](c1cn2ncc(CN3C[C@@H](C(F)(F)F)NC3=O)cc2n1)C1CCC(F)(F)CC1)c1nonc1CC(F)(F)F [Example 23, N—[(S)-(4,4-difluorocyclohexyl)-[7-[[(4S)-2-oxo-4-(trifluoromethyl)imidazolidin-1-yl]methyl]imidazo[1,2-b]pyridazin-2-yl]methyl]-4-(2,2,2-trifluoroethyl)-1,2,5-oxadiazole-3-carboxamide] |  | < 9.45 nM | 14.9 nM

The remaining lines, values ahead:

Row | bioavailability [1] | IC50 [2] | IC50 (human IL-17A) | Compound
10 | 55% | < 9.45 nM | 148 nM | O=C(N[C@H](c1cn2ncc(CN3C[C@@H](C(F)(F)F)NC3=O)cc2n1)C1CCC(F)(F)CC1)c1conc1C(F)(F)F [Example 11, N—[(S)-(4,4-Difluorocyclohexyl)-[7-[[(4S)-2-oxo-4-(trifluoromethyl)imidazolidin-1-yl]methyl]imidazo[1,2-b]pyridazin-2-yl]methyl]-3-(trifluoromethyl)isoxazole-4-carboxamide]
11 | 12% | 10.6 nM | 46.5 nM | O=C(N[C@H](c1cn2ncc(CN3C[C@@H](C(F)(F)F)NC3=O)cc2n1)C1CCC(F)(F)CC1)c1conc1CCF [Example 9, N—[(S)-(4,4-Difluorocyclohexyl)-[7-[[(4S)-2-oxo-4-(trifluoromethyl)imidazolidin-1-yl]methyl]imidazo[1,2-b]pyridazin-2-yl]methyl]-3-(2-fluoroethyl)isoxazole-4-carboxamide]
12 | 34% | 15.7 ± 7 nM | 51.6 ± 23.5 nM | O=C(N[C@H](c1cn2ncc(CN3C[C@@H](C(F)(F)F)NC3=O)cc2n1)C1CCC(F)(F)CC1)c1conc1C1CC1 [Example 1, 3-Cyclopropyl-N—[(S)-(4,4-difluorocyclohexyl)-[7-[[(4S)-2-oxo-4-(trifluoromethyl)imidazolidin-1-yl]methyl]imidazo[1,2-b]pyridazin-2-yl]methyl]isoxazole-4-carboxamide]
13 |  | 18.1 nM | 107 nM | O=C(N[C@H](c1cn2ncc(CN3C[C@@H](C(F)(F)F)NC3=O)cc2n1)C1CCC(F)(F)CC1)c1conc1C1(F)CC1 [Example 12, N—[(S)-(4,4-Difluorocyclohexyl)-[7-[[(4S)-2-oxo-4-(trifluoromethyl)imidazolidin-1-yl]methyl]imidazo[1,2-b]pyridazin-2-yl]methyl]-3-(1-fluorocyclopropyl)isoxazole-4-carboxamide]
14 |  | 51.9 nM | 82.9 nM | CC(C)(F)c1nocc1C(=O)N[C@H](c1cn2ncc(CN3C[C@@H](C(F)(F)F)NC3=O)cc2n1)C1CCC(F)(F)CC1 [Example 15, N—[(S)-(4,4-Difluorocyclohexyl)-[7-[[(4S)-2-oxo-4-(trifluoromethyl)imidazolidin-1-yl]methyl]imidazo[1,2-b]pyridazin-2-yl]methyl]-3-(1-fluoro-1-methyl-ethyl)isoxazole-4-carboxamide]
15 |  | 36.1 nM | 33.3 nM | CC1(c2nocc2C(=O)N[C@H](c2cn3ncc(CN4C[C@@H](C(F)(F)F)NC4=O)cc3n2)C2CCC(F)(F)CC2)CC1 [Example 14, N—[(S)-(4,4-Difluorocyclohexyl)-[7-[[(4S)-2-oxo-4-(trifluoromethyl)imidazolidin-1-yl]methyl]imidazo[1,2-b]pyridazin-2-yl]methyl]-3-(1-methylcyclopropyl)isoxazole-4-carboxamide]
16 |  | 47 nM | 48.9 nM | O=C(N[C@H](c1cn2ncc(CN3C[C@@H](C(F)(F)F)NC3=O)cc2n1)C1CCC(F)(F)CC1)c1conc1C1CC(F)(F)C1 [Example 10, 3-(3,3-Difluorocyclobutyl)-N—[(S)-(4,4-difluorocyclohexyl)-[7-[[(4S)-2-oxo-4-(trifluoromethyl)imidazolidin-1-yl]methyl]imidazo[1,2-b]pyridazin-2-yl]methyl]isoxazole-4-carboxamide]
